Measured values as given in US11739101B2, “Bifunctional degraders of hematopoietic progenitor kinase and therapeutic uses thereof” (Nurix Therapeutics, Inc., priority 2020, dated 2023).

What follows are compounds tested against T1, HPK1 (Homo sapiens, UniProt Q92918) (assay: HPK1 Cellular HiBiT Degradation Assay). Conditions: HiBiT-tagged HPK1 Jurkat cells, 24 hours, 10 uM to 0.1 nM; Dmax = 100 minus lowest % HPK1 remaining vs DMSO vehicle.
T1 construct: A HiBiT tag was introduced by CRISPR on the N terminus of HPK1 in Jurkat cells; host or cells: Jurkat (ATCC TIB-152), monoclonal CRISPR HiBiT knock-in line
T1 sequence (Q92918 whole entry): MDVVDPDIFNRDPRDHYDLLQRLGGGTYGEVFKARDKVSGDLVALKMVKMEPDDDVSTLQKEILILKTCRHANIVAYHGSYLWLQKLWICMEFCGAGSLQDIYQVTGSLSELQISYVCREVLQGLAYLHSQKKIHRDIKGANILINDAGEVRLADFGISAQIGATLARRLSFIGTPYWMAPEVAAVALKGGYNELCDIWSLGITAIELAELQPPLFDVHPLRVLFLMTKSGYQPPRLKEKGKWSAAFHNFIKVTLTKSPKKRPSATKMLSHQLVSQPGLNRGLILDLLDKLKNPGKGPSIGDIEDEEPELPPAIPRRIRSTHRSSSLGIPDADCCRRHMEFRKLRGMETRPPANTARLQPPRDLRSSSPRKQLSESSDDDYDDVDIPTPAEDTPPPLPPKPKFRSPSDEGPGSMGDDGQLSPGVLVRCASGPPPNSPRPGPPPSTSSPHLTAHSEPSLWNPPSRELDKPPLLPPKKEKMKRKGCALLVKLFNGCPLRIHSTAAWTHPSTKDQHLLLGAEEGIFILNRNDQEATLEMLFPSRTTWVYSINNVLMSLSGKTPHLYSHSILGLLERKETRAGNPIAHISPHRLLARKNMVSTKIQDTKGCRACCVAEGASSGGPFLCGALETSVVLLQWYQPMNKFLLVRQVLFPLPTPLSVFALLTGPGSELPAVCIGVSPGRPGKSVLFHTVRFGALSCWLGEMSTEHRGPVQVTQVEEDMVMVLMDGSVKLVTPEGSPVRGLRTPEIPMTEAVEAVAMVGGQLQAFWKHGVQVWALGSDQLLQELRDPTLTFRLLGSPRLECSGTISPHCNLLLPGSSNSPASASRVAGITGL
Type: cell-based
Procedure, shortened: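 Jurkat cells with CRISPR N-terminal HiBiT-tagged HPK1 were exposed to an 11-point 3.16-fold dilution series, 10 uM to 0.1 nM final, for 24 hours at 37° C./5% CO2. HPK1 was read by HiBiT lytic luminescence against DMSO as 100% and parental cells as background. Dmax is 100 minus the lowest % remaining from a four-parameter fit, with a parallel CellTiter-Glo viability check.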

Row | Dmax [%] | Structure (SMILES) | Cellular HPK1 HiBiT: Dmax (%)
1 | < 45 | Cc1cc(F)c(Nc2nc(-c3ccc4c(c3)N([C@H]3C[C@@H](N5CCCCC5)C3)C(=O)C43CCN(C(=O)C4CCN(C(=O)CC5CCN(c6cccc7c6C(=O)N(C6CCC(=O)NC6=O)C7=O)CC5)CC4)CC3)cc3ncn(C(C)C)c23)cc1C(=O)NC(C)C (stereo partly drawn) [Example 36, 5-{[6-(1′-{1-[2-(1-{2-[2,6-dioxopiperidin-3-yl]-1,3-dioxo-2,3-dihydro-1H-isoindol-4-yl}piperidin-4-yl)acetyl]piperidine-4-carbonyl}-2-oxo-1-[(1s,3s)-3-(piperidin-1-yl)cyclobutyl]-1,2-dihydrospiro[indole-3,4′-piperidin]-6-yl)-3-(propan-2-yl)-3H-imidazo[4,5-c]pyridin-4-yl]amino}-4-fluoro-2-methyl-N-(propan-2-yl)benzamide] | –
2 | > 65 | Cc1cc(F)c(Nc2nc(-c3ccc4c(c3)N([C@H]3C[C@@H](N5CCCCC5)C3)C(=O)C43CCN(C(=O)C4CCN(CC5CCN(c6cccc7c6C(=O)N(C6CCC(=O)NC6=O)C7=O)CC5)CC4)CC3)cc3ncn(C(C)C)c23)cc1C(=O)NC(C)C (stereo partly drawn) [Example 37, 5-{[6-(1′-{1-[(1-{2-[2,6-dioxopiperidin-3-yl]-1,3-dioxo-2,3-dihydro-1H-isoindol-4-yl}piperidin-4-yl)methyl]piperidine-4-carbonyl}-2-oxo-1-[(1s,3s)-3-(piperidin-1-yl)cyclobutyl]-1,2-dihydrospiro[indole-3,4′-piperidin]-6-yl)-3-(propan-2-yl)-3H-imidazo[4,5-c]pyridin-4-yl]amino}-4-fluoro-2-methyl-N-(propan-2-yl)benzamide] | –
3 | > 65 | Cc1cc(F)c(Nc2nc(-c3ccc4c(c3)N([C@H]3C[C@@H](N5CCCCC5)C3)C(=O)C43CCN(C(=O)C4CCN(CC5CCN(c6cccc7c6C(=O)N(C6CCC(=O)NC6=O)C7=O)CC5)C4)CC3)cc3ncn(C(C)C)c23)cc1C(=O)NC(C)C (stereo partly drawn) [Example 38, 5-[(6-{1′-[1-[(1-{2-[2,6-dioxopiperidin-3-yl]-1,3-dioxo-2,3-dihydro-1H-isoindol-4-yl}piperidin-4-yl)methyl]pyrrolidine-3-carbonyl]-2-oxo-1-[(1s,3s)-3-(piperidin-1-yl)cyclobutyl]-1,2-dihydrospiro[indole-3,4′-piperidin]-6-yl}-3-(propan-2-yl)-3H-imidazo[4,5-c]pyridin-4-yl)amino]-4-fluoro-2-methyl-N-(propan-2-yl)benzamide] | –
4 | < 45 | Cc1cc(F)c(Nc2nc(-c3ccc4c(c3)N([C@H]3C[C@@H](N5CCCCC5)C3)C(=O)C43CCN(C(=O)C4CN(C(=O)C5CCN(c6ccc7c(c6)C(=O)N(C6CCC(=O)NC6=O)C7=O)CC5)C4)CC3)cc3ncn(C(C)C)c23)cc1C(=O)NC(C)C (stereo partly drawn) [Example 39, 5-[(6-{1′-[1-(1-{2-[2,6-dioxopiperidin-3-yl]-1,3-dioxo-2,3-dihydro-1H-isoindol-5-yl}piperidine-4-carbonyl)azetidine-3-carbonyl]-2-oxo-1-[(1s,3s)-3-(piperidin-1-yl)cyclobutyl]-1,2-dihydrospiro[indole-3,4′-piperidin]-6-yl}-3-(propan-2-yl)-3H-imidazo[4,5-c]pyridin-4-yl)amino]-4-fluoro-2-methyl-N-(propan-2-yl)benzamide] | –
5 | 45 to 65 | Cc1cc(F)c(Nc2nc(-c3ccc4c(c3)N([C@H]3C[C@@H](N5CCCCC5)C3)C(=O)C43CCN(C(=O)C4CCN(C(=O)C5CCN(c6ccc7c(c6)C(=O)N(C6CCC(=O)NC6=O)C7=O)CC5)C4)CC3)cc3ncn(C(C)C)c23)cc1C(=O)NC(C)C (stereo partly drawn) [Example 40] | –
6 | – | Cc1cc(F)c(Nc2nc(-c3ccc4c(c3)N(C3CC(N5CCCCC5)C3)C(=O)C43CCN(C(=O)C4CCN(C(=O)C5CCN(c6ccc7c(c6)C(=O)N(C6CCC(=O)NC6=O)C7=O)CC5)CC4)CC3)cc3ncn(C(C)C)c23)cc1C(=O)NC(C)C (stereo not drawn) [Example 41, 5-[(6-{1′-[1-(1-{2-[2,6-dioxopiperidin-3-yl]-1,3-dioxo-2,3-dihydro-1H-isoindol-5-yl}piperidine-4-carbonyl)piperidine-4-carbonyl]-2-oxo-1-[(1s,3s)-3-(piperidin-1-yl)cyclobutyl]-1,2-dihydrospiro[indole-3,4′-piperidin]-6-yl}-3-(propan-2-yl)-3H-imidazo[4,5-c]pyridin-4-yl)amino]-4-fluoro-2-methyl-N-(propan-2-yl)benzamide] | B (45%≤B≤65%)
7 | 45 to 65 | Cc1cc(F)c(Nc2nc(-c3ccc4c(c3)N([C@H]3C[C@@H](N5CCCCC5)C3)C(=O)C43CCN(C(=O)C4CCN(C(=O)CN5CC6(CCN(c7ccc8c(c7)C(=O)N(C7CCC(=O)NC7=O)C8=O)CC6)C5)CC4)CC3)cc3ncn(C(C)C)c23)cc1C(=O)NC(C)C (stereo partly drawn) [Example 42, 5-{[6-(1′-{1-[2-(7-{2-[2,6-dioxopiperidin-3-yl]-1,3-dioxo-2,3-dihydro-1H-isoindol-5-yl}-2,7-diazaspiro[3.5]nonan-2-yl)acetyl]piperidine-4-carbonyl}-2-oxo-1-[(1s,3s)-3-(piperidin-1-yl)cyclobutyl]-1,2-dihydrospiro[indole-3,4′-piperidin]-6-yl)-3-(propan-2-yl)-3H-imidazo[4,5-c]pyridin-4-yl]amino}-4-fluoro-2-methyl-N-(propan-2-yl)benzamide] | –
8 | 45 to 65 | Cc1cc(F)c(Nc2nc(-c3ccc4c(c3)N([C@H]3C[C@@H](N5CCCCC5)C3)C(=O)C43CCN(C(=O)CN4CCN(c5ccc(CC(=O)NCCNc6cccc7c6C(=O)N(C6CCC(=O)NC6=O)C7=O)cc5)CC4)CC3)cc3ncn(C(C)C)c23)cc1C(=O)NC(C)C (stereo partly drawn) [Example 44, 5-({6-[1′-(2-{4-[4-({[2-({2-[2,6-dioxopiperidin-3-yl]-1,3-dioxo-2,3-dihydro-1H-isoindol-4-yl}amino)ethyl]carbamoyl}methyl)phenyl]piperazin-1-yl}acetyl)-2-oxo-1-[(1s,3s)-3-(piperidin-1-yl)cyclobutyl]-1,2-dihydrospiro[indole-3,4′-piperidin]-6-yl]-3-(propan-2-yl)-3H-imidazo[4,5-c]pyridin-4-yl}amino)-4-fluoro-2-methyl-N-(propan-2-yl)benzamide] | –
9 | > 65 | Cc1cc(F)c(Nc2nc(-c3ccc4c(c3)N([C@H]3C[C@@H](N5CCCCC5)C3)C(=O)C43CCN(C(=O)C4CCN(CC5CCN(c6ccc7c(c6)C(=O)N(C6CCC(=O)NC6=O)C7=O)CC5)CC4)CC3)cc3ncn(C(C)C)c23)cc1C(=O)NC(C)C (stereo partly drawn) [Example 45, 5-{[6-(1′-{1-[(1-{2-[2,6-dioxopiperidin-3-yl]-1,3-dioxo-2,3-dihydro-1H-isoindol-5-yl}piperidin-4-yl)methyl]piperidine-4-carbonyl}-2-oxo-1-[(1s,3s)-3-(piperidin-1-yl)cyclobutyl]-1,2-dihydrospiro[indole-3,4′-piperidin]-6-yl)-3-(propan-2-yl)-3H-imidazo[4,5-c]pyridin-4-yl]amino}-4-fluoro-2-methyl-N-(propan-2-yl)benzamide] | –
10 | 45 to 65 | Cc1cc(F)c(Nc2nc(-c3ccc4c(c3)N([C@H]3C[C@@H](N5CCCCC5)C3)C(=O)C43CCN(C(=O)CN4CCC5(CC4)CC(C(=O)NCCNc4cccc6c4C(=O)N(C4CCC(=O)NC4=O)C6=O)C5)CC3)cc3ncn(C(C)C)c23)cc1C(=O)NC(C)C (stereo partly drawn) [Example 46, N-(2-((2-(2,6-dioxopiperidin-3-yl)-1,3-dioxoisoindolin-4-yl)amino)ethyl)-7-(2-(6-(4-((2-fluoro-5-(isopropylcarbamoyl)-4-methylphenyl)amino)-3-isopropyl-3H-imidazo[4,5-c]pyridin-6-yl)-2-oxo-1-((1s,3s)-3-(piperidin-1-yl)cyclobutyl)spiro[indoline-3,4′-piperidin]-1′-yl)-2-oxoethyl)-7-azaspiro[3.5]nonane-2-carboxamide] | –
11 | > 65 | Cc1cc(F)c(Nc2nc(-c3ccc4c(c3)N([C@H]3C[C@@H](N5CCCCC5)C3)C(=O)C43CCN(C(=O)Cc4ccc(N5CCN(CC(=O)N[C@H](C(=O)N6C[C@H](O)C[C@H]6C(=O)N[C@@H](C)c6ccc(-c7scnc7C)cc6)C(C)(C)C)CC5)cc4)CC3)cc3ncn(C(C)C)c23)cc1C(=O)NC(C)C [Example 47, (2S,4R)-1-[(2S)-2-(2-{4-[4-(2-{6-[4-({2-fluoro-4-methyl-5-[(propan-2-yl)carbamoyl]phenyl}amino)-3-(propan-2-yl)-3H-imidazo[4,5-c]pyridin-6-yl]-2-oxo-1-[(1s,3s)-3-(piperidin-1-yl)cyclobutyl]-1,2-dihydrospiro[indole-3,4′-piperidin]-1′-yl}-2-oxoethyl)phenyl]piperazin-1-yl}acetamido)-3,3-dimethylbutanoyl]-4-hydroxy-N-[(1S)-1-[4-(4-methyl-1,3-thiazol-5-yl)phenyl]ethyl]pyrrolidine-2-carboxamide] | –

Row | Structure (SMILES) | Dmax [%] | Cellular HPK1 HiBiT: Dmax (%)
12 | Cc1cc(F)c(Nc2nc(-c3ccc4c(c3)N([C@H]3C[C@@H](N5CCCCC5)C3)C(=O)C43CCN(CCOCCOCCOCCOCCOCCOCCOCCNc4cccc5c4C(=O)N(C4CCC(=O)NC4=O)C5=O)CC3)cc3ncn(C(C)C)c23)cc1C(=O)NC(C)C (stereo partly drawn) [Example 43, 5-[(6-{1′-[23-({2-[2,6-dioxopiperidin-3-yl]-1,3-dioxo-2,3-dihydro-1H-isoindol-4-yl}amino)-3,6,9,12,15,18,21-heptaoxatricosan-1-yl]-2-oxo-1-[(1s,3s)-3-(piperidin-1-yl)cyclobutyl]-1,2-dihydrospiro[indole-3,4′-piperidin]-6-yl}-3-(propan-2-yl)-3H-imidazo[4,5-c]pyridin-4-yl)amino]-4-fluoro-2-methyl-N-(propan-2-yl)benzamide] | > 65 | –
